# Test results from patent US12344852B2, “Control of phenotype in plants” (GREENVENUS, LLC, priority 2016, dated 2025).
# Key:
# [1] = system: Barnase/IP:Barstar (ID06) transgenic Arabidopsis plants; experiment: Restoration of flowering in Barnase/IP:Barstar (ID06) transgenic plants by ligand spray; type: in vivo; conditions: for B/FS:B plants that developed flowers: T2 ID06 plants, end of experiment day 51
# Source text: A vector ID06, illustrated diagrammatically in FIG. 11, was constructed to provide constant expression of the barnase ribonuclease from Bacillus amyloliquefaciens in flower primordia to suppress flowering. The DNA construct (ID06) was transformed into wild type Arabidopsis by flower dipping method. T1 seeds were harvested and germinated in soil. Seven day old T1 seedlings were sprayed with LIBERTY® 280SL herbicide and 37 transgenic plants resistant to the herbicide survived. Transformants were analyzed by quantitative PCR (qPCR) to check transgene copy numbers. Thirteen percent of transgenic events contained only one copy of the transgene. All events were grown in growth chambers to evaluate phenotypes. The transgenic plants containing ID06 DNA construct should express the cytotoxic ribonuclease barnase in flower primordia which prevents formation of flowers. […] Instead of flowers, the Barnase/IP:Barstar plants have elongated small leaves that could have derived from sepals as shown in the inset picture of FIG. 12B.
# The seven week old non-flowering plants were then sprayed with the ligand methoxyfenozide (2.5 μM) to turn on barstar expression and restore flowering. Ligand applications were performed every other day until all flowers had developed. […] T2 seeds were harvested for further evaluation of the transgenic lines on T2 plants.
# Multiple T2 plants from six independent single copy transgenic ID06 events along with wt arabidopsis control plants were grown for three weeks. At three weeks plants from each line were divided in 3 treatment groups of 12 plants in each. The treatment was applied every other day for 30 days. The plants in group A were sprayed with plain water, in group B—with 50 nM solution of methoxyfenozide, and in group C—with 250 nM solution of methoxyfenozide. Before start of the treatment leaf tissue was collected from each plant for DNA extraction and genotype assessment by qPCR to identify homozygous, heterozygous and null segregant plants.
# Plants were assessed as to whether they ever flowered (yes/no at the end of experiment, day 51) and the time to start flowering defined as the number of days after the first application of methoxyfenozide (days post-treatment: DPT) until the first flower bud appears. […] All the null segregants and wild-type plants flowered irrespectively of whether or not they were sprayed with methozyfenozide.
# [2] = system: barstar gene under EcR-based switch; experiment: barstar expression by qRT-PCR in leaf and floral tissues of ID06 plants; type: in vivo, Arabidopsis; conditions: 250 nM vs water
# [3] = system: IP:ChsA RNAi (ID164) transgenic Petunia plants; experiment: Flower color change in IP:ChsA RNAi (ID164) transgenic petunia after ligand spray; type: in vivo, Petunia hybrida variety V26; conditions: for time to change flower color from dark purple to variegate: one application
# Source text: DNA construct ID164 (LB-IP:ChsA RNAi+35S:AP+CsVMV:NptII-RB) (SEQ ID NO:55) containing both the inducible promoter (IP) composed of 5 GAL4 regulatory elements (GAL4-RE) placed upstream of the minimal CaMV-35S promoter and the multidomain activator (AP) protein gene (VGE(E68V/V184I/Y204E) under the control of CaMV-35S promoter is shown in FIG. 20B. ID164 (SEQ ID NO:55) was used to transform wild type (wt) Petunia hybrid variety V26. The chalcone synthase hairpin transcript will not be express until the activator ligand (methoxyfenozide; Mtf) is provided to mobilize the activator proteins for binding to the GAL4-RE and switching the inducible promoter FS on. Transgene copy number was assessed for 56 TO transgenic plants by Tagman assay. 84% were low copies (two copies and below), 12.5% were high copy (three copies and above) and, few plants were nulls. Before ligand application most (98%) plants were flowering as dark purple color. Plants were divided in five groups, each group being treated differently. Treatment occurred every other day at a rate of 30 ml per plant. Treatment is sprayed on plants (leaves and flowers). Water is used as a mock treatment while INTREPID® 2F insecticide (Mtf being the active ingredient) is used as a ligand treatment. Group one was mock treated. Group two was treated with 2.5 uM Mtf in INTREPID® 2F insecticide form. Group three was treated with 1 mM Mtf (highest recommended dose on ornamental plants for INTREPID® 2F). Group four was treated with 2 mM Mtf and group five treated with 5 mM Mtf. […] When increasing the ligand concentration to 1 mM, change in flower color, dark purple to variegate, was observed faster (7 days post-treatment) on 50% of plants as shown in FIG. 23. With 2 mM and 5 mM ligand, one application (2 days post-treatment) was sufficient to change flower color from dark purple to variegate as shown in FIG. 24 and FIG. 25, respectively. Decrease in ChsA gene expression level in treated plants compared to their higher level before ligand treatment correlates with their change in flower color as shown in FIG. 21.
# Botrytis cinerea = experiment: Ligand inducible disease resistance screening of detached petunia leaves; type: in vivo
# Method: Botrytis cinerea isolation and inoculation. The plant pathogen was isolated from diseased strawberries displaying typical symptomology. A single spore colony was isolated using standard plant pathology methodologies and the ITSI—5.8S rDNA—ITSII locus was amplified and sequenced to validate its identity. The isolate used is 100% identical to more than 20 previously reported B. cinerea isolates in Genbank. For plant inoculation B. cinerea was grown on V8 Agar media under fluorescent light for 2 weeks until the typical grey mass of aerial spores was visible. A section of the colony was placed into 10 mL of sterile DI water and vortexed vigorously to dislodge spores. The resulting solution was filtered through a 70 micron mesh to yield a homogenous spore solution free of mycelia and agar media. The spore solution was spun down and washed 3× in sterile DI water and quantified using a hemocytometer. The solution was diluted in sterile DI water to a final concentration of 200,000 spores/ml. For petunia inoculations, detached leaves were wounded with a sterile forceps (approximately 0.5 mm abrasion) and the wounded site was inoculated with 10 μL of spore solution (2,000 spores/inoculation site). Three leaves/treatment and three wound sites/leaf were inoculated with spore solution for each assay. […]
smiles,measurement,setting,value
"COc1cccc(C(=O)NN(C(=O)c2cc(C)cc(C)c2)C(C)(C)C)c1C [methoxyfenozide, 3-methoxy-2-methylbenzoic acid 2-(3,5-dimethylbenzoyl)-2-(1,1-dimethylethyl)hydrazide]",flowering of Barnase/Barstar plants,"[1]; 2.5 μM ligand, FIG. 12 Panel C",flowering
same,B/FS:B plants that developed flowers,[1]; 50 nM sprayed every other day for 30 days,56 of 57
same,B/FS:B plants that developed flowers,[1]; 250 nM sprayed every other day for 30 days,50 of 52
same,delay in the time to start flowering between ligand-treated transgenic (ID06) and non-transgenic plants,"[1]; T2 plants, 50 nM or 250 nM",8 to 10 days
same,minimal effective concentration on flowering,[1]; same effect at 50 nM and 250 nM solution,lower than 50 nM
same,time after ligand application until flower buds and flowers appear,"[1]; seven week old non-flowering T1 plants, 2.5 μM sprayed every other day",seven
same,expression of barstar,[2],dramatically increased
same,time to flower color change from dark purple to light purple,[3]; 2.5 uM,10 days post-treatment
same,plants showing flower color change from dark purple to light purple,"[3]; 2.5 uM, sprayed every other day, 30 ml per plant, INTREPID 2F form",50%
same,"plants showing change in flower color, dark purple to variegate",[3]; 1 mM,50%
same,"time to change in flower color, dark purple to variegate",[3]; 1 mM,7 days post-treatment
same,time to change flower color from dark purple to variegate,[3]; 2 mM,2 days post-treatment
same,time to change flower color from dark purple to variegate,[3]; 5 mM,2 days post-treatment
same,disease resistance of Switch-DCL1/DCL2/GUS hairpin line,"Botrytis cinerea; leaves on 50 uM in 1% phytoagar, inoculated after 3 days, read 7 days after pathogen inoculation",ligand induced disease resistance
same,disease resistance of constitutive DCL-25 (+ control) and non-specific dsRNA line (− control),Botrytis cinerea; presence or absence of 50 uM ligand,no change in disease resistance
